Results as given in US20090232761A1, “Use of a Composition Comprising Pentane-1, 5-Diol as Deodorant” (priority 2005, published 2009).

Assay: Napkin sprayed with pentane-1,5-diol solution, dried, used to remove urine; smell assessed
Design: species or system human being
Conditions: active solutions containing 10% (v/v) and 30% (v/v) sprayed onto disposable napkin, dried at room temperature; control water alone
Excerpt: Active solutions containing 10% (v/v) and 30% (v/v) pentane-1,5-diol were sprayed onto a disposable napkin until the complete area of the napkin was moistened. The napkin was left at room temperature until the napkin was dry. The napkin was then used to remove urine from a human being. […] As a control was water used alone. The same amount of water and the active solution were used.

In the case of OCCCCCO [pentane-1,5-diol], the “smell of urine from the napkin” value is reported as “no smell of urine”.
